Data from US20240199546A1, “INHIBITORS OF SOLUTE CARRIER FAMILY 6A MEMBER 19 (SLC6A19) AND METHODS OF USE THEREOF” (Maze Therapeutics, Inc., priority 2022, published 2024).

Target: T1, human SLC6A19 and TMEM27 (Homo sapiens, UniProt Q695T7)
T1 construct: expressed in transfected cells
T1 sequence (Q695T7 1-634): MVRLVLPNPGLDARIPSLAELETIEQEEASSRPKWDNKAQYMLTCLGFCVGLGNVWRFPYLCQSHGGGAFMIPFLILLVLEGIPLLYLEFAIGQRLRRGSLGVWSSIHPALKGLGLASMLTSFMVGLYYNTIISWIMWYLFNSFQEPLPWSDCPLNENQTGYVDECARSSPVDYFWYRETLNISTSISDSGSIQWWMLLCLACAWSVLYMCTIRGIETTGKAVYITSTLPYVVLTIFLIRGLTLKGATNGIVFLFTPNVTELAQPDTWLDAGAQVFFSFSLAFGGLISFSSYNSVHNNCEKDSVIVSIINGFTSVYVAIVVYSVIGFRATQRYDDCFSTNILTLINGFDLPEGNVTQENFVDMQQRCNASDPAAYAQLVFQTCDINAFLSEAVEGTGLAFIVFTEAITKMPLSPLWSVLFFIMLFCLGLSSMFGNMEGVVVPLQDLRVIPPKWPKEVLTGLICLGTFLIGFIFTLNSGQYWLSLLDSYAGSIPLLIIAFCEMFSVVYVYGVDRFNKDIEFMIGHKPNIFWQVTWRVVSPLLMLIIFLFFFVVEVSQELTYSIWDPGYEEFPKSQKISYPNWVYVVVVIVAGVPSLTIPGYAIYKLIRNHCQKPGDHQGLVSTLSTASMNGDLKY
T1 sequence (Q9HBJ8 15-222 partner): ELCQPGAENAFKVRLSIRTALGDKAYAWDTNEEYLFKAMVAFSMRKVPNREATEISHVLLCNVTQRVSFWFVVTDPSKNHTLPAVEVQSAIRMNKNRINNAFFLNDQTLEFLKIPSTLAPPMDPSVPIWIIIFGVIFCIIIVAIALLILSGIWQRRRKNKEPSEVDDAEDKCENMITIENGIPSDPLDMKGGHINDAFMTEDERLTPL
Assay: Radiolabelled (3H) leucine uptake in CHO cells with doxycycline-inducible expression of human SLC6A19 and TMEM27 (Example B-1)
Type: cell-based
Settings: CHO cells with doxycycline-inducible expression of human SLC6A19 and TMEM27, read-out: SLC6A19_Radioligand Uptake Assay IC50
Method: The flasks were then incubated (humidified, 37° C. with 5% CO2) for 2 minutes. After incubation, 10 mL of pre-warmed cell culture media was added to each flask. The cell suspension was collected and centrifuged for 5 minutes at 200×g. The supernatant was aspirated and the pellet was resuspended in 5 mL pre-warmed cell culture media. The resuspended cells were counted using the Countess Cell Counting Chamber (Invitrogen) and the cell concentration of the suspension was readjusted to 1 million live cells/mL using pre-warmed cell culture media. […] Assay plates were then incubated (humidified, 37° C. with 5% CO2) for 18 hours. After incubation, the media was aspirated and the wells were washed 4 times with pre-warmed HBSS (Sigma-Aldrich, H8264-1L) using an Apricot S-Pipette S2 (Apricot Designs), such that 5 uL/well HBSS was remaining at the end of each wash. […] At this step, the final in-well DMSO concentration in the assay plate is 0.5%. All compounds were plated in a duplicate 8-point dilution series that consisted of 3-fold dilutions. The plates were incubated with compound (humidified, 37° C. with 5% CO2) for 1 hour. […] The plates were then incubated (humidified, 37° C. with 5% CO2) on a plate shaker at 200 rpm for 2 hours. After incubation, the plates were removed from the shaker and kept at room temperature for 15 minutes. Liquid scintillation analysis was performed using the MicroBeta2 Microplate Counter (Perkin Elmer). Activity (%) was derived by normalizing the average of positive control compound treated wells to 0% and the average of DMSO (negative control) wells to 100%. Collaborative Drug Discovery software was used for graphing data.

**Q.** For Cc1cc(COc2cc3[nH]c(CNC(=O)[C@H]4CC[C@@H]4O)cc3cc2Cl)on1 (racemic) [Compound 248, (1R,2R)-N-((5-chloro-6-((3-methylisoxazol-5-yl)methoxy)-1H-indol-2-yl)methyl)-2-hydroxycyclobutane-1-carboxamide and (1S,2S)-N-((5-chloro-6-((3-methylisoxazol-5-yl)methoxy)-1H-indol-2-yl)methyl)-2-hydroxycyclobutane-1-carboxamide], which IC50 is on record?
**A.** 627 nM

**Q.** How did the IC50 turn out when Cc1cc(COc2cc3[nH]c(CNC(=O)[C@H]4C[C@@H]5CC[C@H]4O5)cc3cc2Cl)on1 (racemic) [Compound 297, (1R,2S,4S)-N-((5-chloro-6-((3-methylisoxazol-5-yl)methoxy)-1H-indol-2-yl)methyl)-7-oxabicyclo[2.2.1]heptane-2-carboxamide and (1S,2R,4R)-N-((5-chloro-6-((3-methylisoxazol-5-yl)methoxy)-1H-indol-2-yl)methyl)-7-oxabicyclo[2.2.1]heptane-2-carboxamide] was run?
**A.** 1020 nM

**Q.** For CC(NC(=O)C1(C)CC1)c1cc2cc(Cl)c(OCc3cscn3)cc2[nH]1 (racemic) [Compound 347, (S)-N-(1-(5-chloro-6-(thiazol-4-ylmethoxy)-1H-indol-2-yl)ethyl)-1-methylcyclopropane-1-carboxamide and (R)-N-(1-(5-chloro-6-(thiazol-4-ylmethoxy)-1H-indol-2-yl)ethyl)-1-methylcyclopropane-1-carboxamide], which IC50 is on record?
**A.** 1050 nM

**Q.** With O=C(NCc1cc2cc(Cl)c(OCc3cscn3)cc2[nH]1)N1CCC1CO (racemic) [Compound 365, (S)-N-((5-chloro-6-(thiazol-4-ylmethoxy)-1H-indol-2-yl)methyl)-2-(hydroxymethyl)azetidine-1-carboxamide and (R)-N-((5-chloro-6-(thiazol-4-ylmethoxy)-1H-indol-2-yl)methyl)-2-(hydroxymethyl)azetidine-1-carboxamide] as the compound, how does the IC50 read?
**A.** 991 nM

**Q.** With O=C(NCc1cc2cc(Cl)c(OCc3cscn3)cc2[nH]1)N1CCC(O)C1 (racemic) [Compound 366, (R)-N-((5-chloro-6-(thiazol-4-ylmethoxy)-1H-indol-2-yl)methyl)-3-hydroxypyrrolidine-1-carboxamide and (S)-N-((5-chloro-6-(thiazol-4-ylmethoxy)-1H-indol-2-yl)methyl)-3-hydroxypyrrolidine-1-carboxamide] as the compound, how does the IC50 read?
**A.** 1530 nM

**Q.** Cc1cc(COc2cc3[nH]c(CNC(=O)N4CCC(F)C4)cc3cc2Cl)on1 (racemic) [Compound 373, (R)-N-((5-chloro-6-((3-methylisoxazol-5-yl)methoxy)-1H-indol-2-yl)methyl)-3-fluoropyrrolidine-1-carboxamide and (S)-N-((5-chloro-6-((3-methylisoxazol-5-yl)methoxy)-1H-indol-2-yl)methyl)-3-fluoropyrrolidine-1-carboxamide] was tested. Which IC50 did it give?
**A.** 472 nM

**Q.** With Cc1cc(COc2cc3[nH]c(CNC(=O)N4CCCC4C(F)F)cc3cc2Cl)on1 (racemic) [Compound 375, (S)-N-((5-chloro-6-((3-methylisoxazol-5-yl)methoxy)-1H-indol-2-yl)methyl)-2-(difluoromethyl)pyrrolidine-1-carboxamide and (R)-N-((5-chloro-6-((3-methylisoxazol-5-yl)methoxy)-1H-indol-2-yl)methyl)-2-(difluoromethyl)pyrrolidine-1-carboxamide] as the compound, how does the IC50 read?
**A.** 948 nM

**Q.** With CC(NC(=O)C1(C)CC1)c1cc2cc(Cl)c(OCc3ccon3)cc2[nH]1 (racemic) [Compound 395, (S)-N-(1-(5-chloro-6-(isoxazol-3-ylmethoxy)-1H-indol-2-yl)ethyl)-1-methylcyclopropane-1-carboxamide and (R)-N-(1-(5-chloro-6-(isoxazol-3-ylmethoxy)-1H-indol-2-yl)ethyl)-1-methylcyclopropane-1-carboxamide] as the compound, how does the IC50 read?
**A.** 2140 nM

**Q.** For CC1(C(=O)NCc2cc3cc(Cl)c(OCC4COCCO4)cc3[nH]2)CC1 (racemic) [Compound 396, (S)-N-((6-((1,4-dioxan-2-yl)methoxy)-5-chloro-1H-indol-2-yl)methyl)-1-methylcyclopropane-1-carboxamide and (R)-N-((6-((1,4-dioxan-2-yl)methoxy)-5-chloro-1H-indol-2-yl)methyl)-1-methylcyclopropane-1-carboxamide], which IC50 is on record?
**A.** 644 nM

**Q.** Which IC50 does the source give for CC1(C(=O)NCc2cc3cc(Cl)c(OCCC4CCCO4)cc3[nH]2)CC1 (racemic) [Compound 397, (S)-N-((5-chloro-6-(2-(tetrahydrofuran-2-yl)ethoxy)-1H-indol-2-yl)methyl)-1-methylcyclopropane-1-carboxamide and (R)-N-((5-chloro-6-(2-(tetrahydrofuran-2-yl)ethoxy)-1H-indol-2-yl)methyl)-1-methylcyclopropane-1-carboxamide] here?
**A.** 492 nM

**Q.** Cc1cc(COc2cc3[nH]c(CNC(=O)C(C)F)cc3cc2Cl)on1 (racemic) [Compound 442, (S)-N-((5-chloro-6-((3-methylisoxazol-5-yl)methoxy)-1H-indol-2-yl)methyl)-2-fluoropropanamide and (R)-N-((5-chloro-6-((3-methylisoxazol-5-yl)methoxy)-1H-indol-2-yl)methyl)-2-fluoropropanamide] was tested. Which IC50 did it give?
**A.** 75.2 nM

**Q.** Which IC50 does the source give for CC(C#N)C(=O)NCc1cc2cc(Cl)c(OCc3cscn3)cc2[nH]1 (racemic) [Compound 445, (S)-N-((5-chloro-6-(thiazol-4-ylmethoxy)-1H-indol-2-yl)methyl)-2-cyanopropanamide and (R)-N-((5-chloro-6-(thiazol-4-ylmethoxy)-1H-indol-2-yl)methyl)-2-cyanopropanamide] here?
**A.** 444 nM

**Q.** Which IC50 does the source give for Cc1cc(COc2cc3[nH]c(CNC(=O)C(C)C#N)cc3cc2Cl)on1 (racemic) [Compound 486, (S)-N-((5-chloro-6-((3-methylisoxazol-5-yl)methoxy)-1H-indol-2-yl)methyl)-2-cyanopropanamide and (R)-N-((5-chloro-6-((3-methylisoxazol-5-yl)methoxy)-1H-indol-2-yl)methyl)-2-cyanopropanamide] here?
**A.** 387 nM

**Q.** Which IC50 does the source give for CC(F)C(=O)NCc1cc2cc(Cl)c(OCc3cscn3)cc2[nH]1 (racemic) [Compound 511, (R)-N-((5-chloro-6-(thiazol-4-ylmethoxy)-1H-indol-2-yl)methyl)-2-fluoropropanamide and (S)-N-((5-chloro-6-(thiazol-4-ylmethoxy)-1H-indol-2-yl)methyl)-2-fluoropropanamide] here?
**A.** 86.1 nM

**Q.** Cc1cc(COc2cc3[nH]c(CNC(=O)[C@@H]4CCC[C@H]4O)cc3cc2Cl)on1 (racemic) [Compound 534, (1R,2R)-N-((5-chloro-6-((3-methylisoxazol-5-yl)methoxy)-1H-indol-2-yl)methyl)-2-hydroxycyclopentane-1-carboxamide and (1S,2S)-N-((5-chloro-6-((3-methylisoxazol-5-yl)methoxy)-1H-indol-2-yl)methyl)-2-hydroxycyclopentane-1-carboxamide] was tested. Which IC50 did it give?
**A.** 3040 nM

**Q.** For Cc1cc(COc2cc3[nH]c(CNC(=O)C(C)C4COC4)cc3cc2Cl)on1 (racemic) [Compound 545, (S)-N-((5-chloro-6-((3-methylisoxazol-5-yl)methoxy)-1H-indol-2-yl)methyl)-2-(oxetan-3-yl)propenamide and (R)-N-((5-chloro-6-((3-methylisoxazol-5-yl)methoxy)-1H-indol-2-yl)methyl)-2-(oxetan-3-yl)propanamide], which IC50 is on record?
**A.** 3540 nM

**Q.** Which IC50 does the source give for CN1CC(C(=O)NCc2cc3cc(Cl)c(OCc4cscn4)cc3[nH]2)C1=O (racemic) [Compound 546, (R)-N-((5-chloro-6-(thiazol-4-ylmethoxy)-1H-indol-2-yl)methyl)-1-methyl-2-oxoazetidine-3-carboxamide and (S)-N-((5-chloro-6-(thiazol-4-ylmethoxy)-1H-indol-2-yl)methyl)-1-methyl-2-oxoazetidine-3-carboxamide] here?
**A.** 4480 nM
